# Source: patent US12139470B2, “Trioxolane agents” (The Regents of the University of California, priority 2017, dated 2024)
# Like-named read-outs stand apart in the source and are kept apart here.
# Key:
# PC-3 xenograft = test: PET imaging of PC-3 xenograft mouse; format: in vivo; details: tail vein injection
# Description: Compounds 1 and specific examples B9[^18F] and B20[^18F] above are PET imaging reagent with applications in cancer, infectious disease, and inflammation. […] Additional, more quantitative, biodistribution data (e.g., biodistribution data for probes B9 and B20) is included in FIGS. 5-8. […] The imaging reagents above provides a new paradigm for imaging diverse cancer types based on metabolic changes in iron metabolism in tumors and other aspects of tumor biology (hypoxia, necrosis, macrophage infiltration). Imaging primary tumors and metastases and other therapeutic conditions involving aberrant production of labile Fe(II) such as inflammation and infection.
# [1] = system: Plasmodium falciparum: strain W2; test: Plasmodium falciparum growth inhibition assay (EC50 determinations); format: cell-based; details: Plasmodium falciparum, W2; against P. falciparum, in vitro; read-out: potency against P. falciparum
# Description: The growth inhibition assay for P. falciparum was conducted as described previously^29 with minor modifications. […] Following 48 hours of incubation, the cells were fixed by adding 0.1 ml of 2% formaldehyde in phosphate buffered saline, pH=7.4 (PBS). […] Parasitemias were determined from dot plots (forward scatter vs. fluorescence) using [sequence] software (Becton Dickinson). EC50 values for growth inhibition were determined from plots of percentage control parasitemia over inhibitor concentration using GraphPad Prism software.
# [2] = Dissolution in DMSO (stock solution); format: physicochemical
# Description: The way in which the formulations were prepared involved preparing a stock solution of the compound in DMSO, and then performing dilutions from this stock such that the requisite final concentration was obtained after the addition of all the necessary formulation components. Practically speaking, this was accomplished by partitioning a portion of each compound into separate 4 mL vials, and then placing these vials on the lyophilizer to ensure the compounds were completely dry. This led to a vial containing 49.5 mg of the 3′ OZ439 regioisomer, while the other held 51.0 mg of OZ439. […] This entailed adding 309.4 μL of DMSO to the vial with the 3′ OZ439 regioisomer, whereas 318.8 μL of DMSO was added to the vial containing actual OZ439. In the past, an issue has not arisen when doing this. However, this time, a major problem presented itself. The problem was not with the newly developed 3′ regioisomer of OZ439, but with OZ439 itself. After addition of DMSO to the vials, the majority of the 3′ regioisomer dissolved, whereas none of the actual OZ439 did. In an attempt to assist with dissolving the material, the two vials were then placed a water bath set to 42° C. […] The vial was then placed in a bath sonicator for 60 minutes, ultimately to no avail as […] dissolution of the material. […] At this point, the vial was then placed on the Hi-Vac to remove the DMSO. Once dry, the material was partitioned again in an attempt to get the material to dissolve at a lower concentration.
# For the second attempt at preparing the necessary formulation for the actual OZ439, the material was partitioned such that when the dilutions were performed, the highest concentration that would be prepared from the stock solution would be the 10 mg/kg doses. As such, the 80, 40, and 30 mg/kg doses were all prepared directly by partitioning the requisite amounts into separate vials and then adding the necessary amounts of the formulation to reach the desired concentration. For the vial that was employed in aliquoting from to prepare the other concentrations, it contained 15.5 mg of OZ439. DMSO (775 μL) was then added to this vial, to yield a final concentration of 20 mg/mL (55 mM). […] Only after allowing the vial to warm in a 55° C. water bath for 30 minutes did the material finally dissolve. At this point, the material was brought back to the bench to aliquot the material en route to preparing the remaining doses. However, upon being removed from the bath, the compound began to crash out as it cooled to room temperature. For this reason, the vial was heated with a heat gun for about 10-15 seconds to get the material to dissolve fully once again. […]
# [3] = Dissolution in oral gavage formulation; format: physicochemical; details: 10% DMSO, 40% of a 20% solution of 2-hydroxypropyl-cyclodextrin in water, 50% PEG400; 80, 40 and 30 mg/kg doses; sonication
# Description: As such, we chose to screen the two regioisomers in a head-to-head study against P. berghei infected mice. In order to carry out this experiment, both compounds first needed to be formulated in a manner that would allow for treatment of the mice by oral gavage. […] Returning to the 3′ regioisomer, the actual doses were then successfully prepared according to the following instructions. The necessary amount of DMSO solution was removed from the vial and added to a new vial. For the 80 mg/kg dose, no additional DMSO was needed to be added to the vial. […] Upon adding the aqueous portion to the 80, 40, and 30 mg/kg doses, a white solution formed (resembled more of an emulsion then a heterogeneous solution). The vials were then placed in a bath sonicator in an attempt to redissolve the material. […] However, even after storing the material at −20° C., the compound was not observed to crash out of the formulation again. For the second attempt at preparing the necessary formulation for the actual OZ439, the material was partitioned such that when the dilutions were performed, the highest concentration that would be prepared from the stock solution would be the 10 mg/kg doses. As such, the 80, 40, and 30 mg/kg doses were all prepared directly by partitioning the requisite amounts into separate vials and then adding the necessary amounts of the formulation to reach the desired concentration. […]
# [4] = Mouse liver microsome assay (half-life, intrinsic clearance)
# Description: A second hypothesis regarding trans-R^A substitution (R^A in Scheme 1) was that the resulting de-symmetrized molecular topology would impact the vivo PK/PD properties of these analogs. […] To explore possible metabolic differences, we evaluated selected analogs with mouse liver microsomes and derived intrinsic clearance (CLint) values (Table 1).
# [5] = Kinetic solubility in PBS; format: physicochemical; details: kinetic solubility in PBS (pH = 7.4), final DMSO 5%, average of three determinations
# Plasmodium berghei = Plasmodium berghei mouse malaria model (Peters test, cures at 30 days); format: in vivo; details: po, 720 h, oral gavage, read-out: Mice Cured (%)
# Description: The suppressive 4-day “Peters test” ^27 involving P. berghei infected mice provides a convenient and cost effective means to assess the overall in vivo performance of pre-clinical antimalarials. […] Mice were followed for 30 days and judged to have been cured of the infection based on the lack of detectable parasitemia at the end of the study.
# Female Swiss Webster Mice (average of 20 g body weight) were infected intraperitoneally with 10^6 Plasmodium berghei-infected erythrocytes collected from a previously infected mouse. […] There were five mice in each test arm. Infections were monitored by daily microscopic evaluation of Giemsa-stained blood smears starting on day seven. Parasitemia were determined by counting the number of infected and uninfected erythrocytes. Body weight was measured over the course of the treatment. […] Animal survival and morbidity were closely monitored for up to 30 days post-infection when the experiment was terminated. In some cases survival is expressed as a PD100 or PD50, the dose that produces respectively 100% or 50% cures in treated animals at 30 days post infection.
# [6] = system: clinical K13-mutant strain; details: pulsed exposure; cited from earlier work
# [7] = system: K13 revertant strain bearing the wild type K13 allele; details: pulsed exposure; cited from earlier work
# [8] = human, in vivo; cited from earlier work
# [9] = 160 mg/mL (341 mM) in DMSO, water bath 42° C., then 55° C. and sonication for OZ439
structure (smiles),measurement,setting,value
"O=C(NCCCNC(=O)C12CC3CC(C1)[C@]1(OO[C@]4(CC[C@@H](c5ccc(OCCN6CCOCC6)cc5)CC4)O1)C(C3)C2)c1ccc(F)cc1 [B9, N-(3-(4-fluorobenzamido)propyl)-4″-(4-(2-morpholinoethoxy)phenyl)dispiro[adamantane-2,3′-[1,2,4]trioxolane-5′,1″-cyclohexane]-5-carboxamide]",PET distribution,PC-3 xenograft,accumulation in the small intestine
"c1cc([C@@H]2CCC[C@]3(C2)OOC2(O3)C3CC4CC(C3)CC2C4)ccc1OCCN1CCOCC1 (stereo in doubt) [A5, 4-(2-(4-(dispiro[adamantane-2,3′-[1,2,4]trioxolane-5′,1″-cyclohexan]-3″-yl)phenoxy)ethyl)morpholine]",EC50,[1],19.5 ± 1.6 nM
same,dissolution in DMSO,[2]; [9],dissolved much more rapidly in DMSO than did OZ439
same,dissolution in DMSO,"[2]; 160 mg/mL (341 mM) in DMSO, water bath 42° C., then 55° C. and sonication for OZ439, listed as 3′ regioisomer of OZ439",completely dissolved
same,dissolution in formulation,[3],completely dissolved
"c1cc([C@H]2CC[C@]3(CC2)OO[C@]2(O3)C3CC4CC(C3)CC2C4)ccc1OCCN1CCOCC1 [OZ439, artefenomel, reference compound]",EC50,[1],7.9 ± 0.2 nM
same,dissolution in DMSO,[2]; 20 mg/mL (55 mM) in DMSO,did not readily dissolve
same,dissolution in DMSO,[2]; [9],did not dissolve
same,dissolution in formulation,[3],unsuccessful in getting the material to dissolve
"CC(C)(N)CNC(=O)C[C@H]1CC[C@]2(CC1)OO[C@]1(O2)C2CC3CC(C2)CC1C3 [2a, arterolane, reference compound]",T1/2,[4]; half-life when incubated with mouse liver microsomes,128 min
same,T1/2 (min) No NADPH,"[4]; mouse liver microsomes, no NADPH",stable
same,CLint,"[4]; mouse, microsomes",5.4 μL/min/mg of protein
same,Solubility,[5],433 µM
same,responders at 13.6 mg/kg/day,"Plasmodium berghei; Table 2, tosylate salt, 13.6 mg/kg/day, once a day for four days, no parasitemia at 30 days",100%
same,responders at 1 mg/kg/day,"Plasmodium berghei; Table 3, free base, 1 mg/kg/day, four daily doses",0%
same,responders at 4 mg/kg/day,"Plasmodium berghei; Table 3, free base, 4 mg/kg/day, four daily doses",80%
same,responders at 6 mg/kg/day,"Plasmodium berghei; Table 3, free base, 6 mg/kg/day, four daily doses",100%
same,responders at 10 mg/kg/day,"Plasmodium berghei; Table 3, free base, 10 mg/kg/day, four daily doses",100%
same,responders at 4 mg/kg/day,"Plasmodium berghei; Table 4, 4 mg/kg/day, once a day for four days",20%
same,responders at 6 mg/kg/day,"Plasmodium berghei; Table 4, 6 mg/kg/day, once a day for four days",80%
same,time to reduce early ring viability by 50% (t50),[6],~3 h
same,time to reduce early ring viability by 50% (t50),[7],~1 h
same,half-life,[8],2 to 3 h
